Experimental data: patent US12257247B2 (Monte Rosa Therapeutics AG, priority 2023, dated 2025)
Like-named read-outs stand apart in the source and are kept apart here.

Molecular target: T1, VAV1 (Homo sapiens, UniProt P15498+Q96SW2)
T1 construct: A heterozygous VAV1 C-terminal HiBiT knock-in pool was generated at Monte Rosa Therapeutics from a clonal Jurkat cell; endogenous in cells; host or cells: Jurkat clone stably expressing LgBiT, homozygous GSPT1-G575N; heterozygous VAV1-HiBiT knock-in pool
Assay: VAV1 degradation activity, VAV1-HiBiT knock-in Jurkat luminescence assay (Example A, Table 1)
Format: cell-based
Details: VAV1-HiBiT knock-in Jurkat cells; for Dmax: Jurkat
In short: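 Jurkat cells carrying VAV1-HiBiT knock-in, plated in RPMI/10% FBS with Endurazine live-cell substrate and pre-incubated ~16 h at 37° C. Compound dosed from 10 μM stock; luminescence read 6 and 24 h later. Response normalised to plate negative/positive controls, EC50 from 3-parameter logistic fit (hillslope 1).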

[1] = luminescence read at 6 and 24 hours, read-out: VAV1 Dmax %
[2] = luminescence read at 6 and 24 hours, read-out: VAV1 Dmax %, class
[3] = luminescence read at 6 and 24 hours, read-out: VAV1 DC50
[4] = luminescence read at 6 and 24 hours, read-out: VAV1 DC50 (nM), class

With Cc1cc(-c2cccc(C3CCC(=O)NC3=O)c2Cl)ccc1OCCN1CCOCC1 (stereo not drawn) [Compound 155, 3-(2-chloro-3′-methyl-4′-(2-morpholinoethoxy)-[1,1′-biphenyl]-3-yl)piperidine-2,6-dione] the Dmax [1] was 92.7%, the Dmax [2] was > 90% and the DC50 [3] was 14.9 nM. For the same compound, the DC50 [4] was ≤ 100 nM.
With C[C@H]1COCC(=O)N1c1ccc(-c2cccc(C3CCC(=O)NC3=O)c2Cl)cc1 (stereo partly drawn) [Compound 325] the Dmax [1] was 96.2%, the Dmax [2] was > 90% and the DC50 [3] was 6.66 nM. The DC50 [4] was ≤ 100 nM.
Work on CN1CC(=O)N(Cc2ccc(-c3cccc(C4CCC(=O)NC4=O)c3Cl)cc2)c2cccnc21 (stereo not drawn) [Compound 255] yielded a Dmax [1] of 89.5%, a Dmax [2] of 60 to 90% and a DC50 [3] of 11 nM. The DC50 [4] was ≤ 100 nM.
Cn1ccc(COc2ncc(-c3cccc(C4CCC(=O)NC4=O)c3Cl)cn2)n1 (stereo not drawn) [Compound 479, 3-(2-chloro-3-(2-((1-methyl-1H-pyrazol-3-yl)methoxy)pyrimidin-5-yl)phenyl)piperidine-2,6-dione] was tested, and the Dmax [1] was 31%, the Dmax [2] was < 60% and the DC50 [3] was ≥ 10000 nM. The DC50 [4] was > 1000 nM.
Cn1ccc(COc2ccc(-c3cccc(C4CCC(=O)NC4=O)c3F)cc2)n1 (stereo not drawn) [Compound 150, 3-(2-fluoro-4′-((1-methyl-1H-pyrazol-3-yl)methoxy)-[1,1′-biphenyl]-3-yl)piperidine-2,6-dione] was tested, and the Dmax [1] was 84.2%, the Dmax [2] was 60 to 90% and the DC50 [3] was 48 nM. For the same compound, the DC50 [4] was ≤ 100 nM.
For O=C1CCC(c2cccc(-c3ccc(-n4ccccc4=O)c(F)c3)c2Cl)C(=O)N1 (stereo not drawn) [Compound 470, 3-(2-chloro-3′-fluoro-4′-(2-oxopyridin-1(2H)-yl)-[1,1′-biphenyl]-3-yl)piperidine-2,6-dione], the Dmax [1] was 97.1%, the Dmax [2] was > 90% and the DC50 [3] was 9.19 nM. For the same compound, the DC50 [4] was ≤ 100 nM.
With O=C1CCC(c2cccc(-c3ccc(CN4CCCCC4=O)nc3)c2Cl)C(=O)N1 (stereo not drawn) [Compound 433, 3-(2-chloro-3-(6-((2-oxopiperidin-1-yl)methyl)pyridin-3-yl)phenyl)piperidine-2,6-dione] the Dmax [1] was 33.6%, the Dmax [2] was < 60% and the DC50 [3] was ≥ 10000 nM. For the same compound, the DC50 [4] was > 1000 nM.
For Cn1cnc(COc2ccc(-c3cccc(C4CCC(=O)NC4=O)c3Cl)cc2)c1 (stereo not drawn) [Compound 183, 3-(2-chloro-4′-((1-methyl-1H-imidazol-4-yl)methoxy)-[1,1′-biphenyl]-3-yl)piperidine-2,6-dione], the Dmax [1] was 95.7%, the Dmax [2] was > 90% and the DC50 [3] was 5.55 nM. The DC50 [4] was ≤ 100 nM.
With O=C1CCC(c2cccc(-c3ccc(N4C(=O)CCCC45CC5)c(F)c3)c2Cl)C(=O)N1 (stereo not drawn) [Compound 350, 3-(2-chloro-3′-fluoro-4′-(5-oxo-4-azaspiro[2.5]octan-4-yl)-[1,1′-biphenyl]-3-yl)piperidine-2,6-dione] the Dmax [1] was 97.3%, the Dmax [2] was > 90% and the DC50 [3] was 7.18 nM. For the same compound, the DC50 [4] was ≤ 100 nM.
In the case of O=C1CCC(c2cccc(-c3ccc(-c4cccc5ocnc45)cc3)c2Cl)C(=O)N1 (stereo not drawn) [Compound 460, 3-(4′-(benzo[d]oxazol-4-yl)-2-chloro-[1,1′-biphenyl]-3-yl)piperidine-2,6-dione], the Dmax [1] is reported as 89.9%, the Dmax [2] is reported as 60 to 90% and the DC50 [3] is reported as 277 nM. It also gave a DC50 [4] of 100 to 1000 nM.
With O=C1CCC(c2cccc(-c3ccc(N4CCCCC4C(F)(F)F)cc3)c2Cl)C(=O)N1 (stereo not drawn) [Compound 476] the Dmax [1] was 84%, the Dmax [2] was 60 to 90% and the DC50 [3] was 397 nM. It also gave a DC50 [4] of 100 to 1000 nM.
With O=C1CCC(c2cccc(-c3ccc(OCCN4CCCC4)cc3)c2Cl)C(=O)N1 (stereo not drawn) [Compound 136] the Dmax [1] was 40.9%, the Dmax [2] was < 60% and the DC50 [3] was ≥ 10000 nM. The DC50 [4] was > 1000 nM.
For Cn1ccc(CN2C(=O)Cc3cc(-c4cccc(C5CCC(=O)NC5=O)c4Cl)ccc32)n1 (stereo not drawn) [Compound 496, 3-(2-chloro-3-(1-((1-methyl-1H-pyrazol-3-yl)methyl)-2-oxoindolin-5-yl)phenyl)piperidine-2,6-dione], the Dmax (luminescence read at 6 and 24 hours after compound addition, read-out: VAV1 Dmax %) was 95.6%, the Dmax (luminescence read at 6 and 24 hours after compound addition, read-out: VAV1 Dmax %, class) was > 90% and the DC50 (luminescence read at 6 and 24 hours after compound addition, read-out: VAV1 DC50) was 12.7 nM. For the same compound, the DC50 (luminescence read at 6 and 24 hours after compound addition, read-out: VAV1 DC50 (nM), class) was ≤ 100 nM.
With O=C1CCC(c2cccc(-c3ccc(CS(=O)(=O)N4CCCC4)cc3)c2Cl)C(=O)N1 (stereo not drawn) [Compound 423, 3-(2-chloro-4′-((pyrrolidin-1-ylsulfonyl)methyl)-[1,1′-biphenyl]-3-yl)piperidine-2,6-dione] the Dmax [1] was 74.6%, the Dmax [2] was 60 to 90% and the DC50 [3] was 144 nM. The DC50 [4] was 100 to 1000 nM.
COc1cc(OC(F)F)ccc1-c1cccc(C2CCC(=O)NC2=O)c1Cl (stereo not drawn) [Compound 137] was tested, and the Dmax [1] was 63.8%, the Dmax [2] was 60 to 90% and the DC50 [3] was 7440 nM. The DC50 [4] was > 1000 nM.
O=C1CCC(c2cccc(-c3ccc(C(=O)Nc4ccon4)cc3)c2Cl)C(=O)N1 (stereo not drawn) [Compound 230, 2′-chloro-3′-(2,6-dioxopiperidin-3-yl)-N-(isoxazol-3-yl)-[1,1′-biphenyl]-4-carboxamide] was tested, and the Dmax [1] was 58.5%, the Dmax [2] was < 60% and the DC50 [3] was 2090 nM. The DC50 [4] was > 1000 nM.
With Cn1cccc(-c2ccc(-c3cccc(C4CCC(=O)NC4=O)c3Cl)cc2)c1=O (stereo not drawn) [Compound 225, 3-(2-chloro-4′-(1-methyl-2-oxo-1,2-dihydropyridin-3-yl)-[1,1′-biphenyl]-3-yl)piperidine-2,6-dione] the Dmax [1] was 93.7%, the Dmax [2] was > 90% and the DC50 [3] was 14.4 nM. The DC50 [4] was ≤ 100 nM.
With O=C1CCC(c2cccc(-c3ccc(Cc4ccccn4)cc3)c2Cl)C(=O)N1 (stereo not drawn) [Compound 169, 3-(2-chloro-4′-(pyridin-2-ylmethyl)-[1,1′-biphenyl]-3-yl)piperidine-2,6-dione] the Dmax [1] was 98%, the Dmax [2] was > 90% and the DC50 [3] was 5.59 nM. The DC50 [4] was ≤ 100 nM.
Work on CN1CCCN(Cc2ccc(-c3cccc(C4CCC(=O)NC4=O)c3Cl)cn2)C1=O (stereo not drawn) [Compound 432, 3-(2-chloro-3-(6-((3-methyl-2-oxotetrahydropyrimidin-1(2H)-yl)methyl)pyridin-3-yl)phenyl)piperidine-2,6-dione] yielded a Dmax [1] of 71.9%, a Dmax [2] of 60 to 90% and a DC50 [3] of 182 nM. It also gave a DC50 [4] of 100 to 1000 nM.
For COCc1ccn(C)c(=O)c1-c1ccc(-c2cccc(C3CCC(=O)NC3=O)c2Cl)cc1 (stereo not drawn) [Compound 411, 3-(2-chloro-4′-(4-(methoxymethyl)-1-methyl-2-oxo-1,2-dihydropyridin-3-yl)-[1,1′-biphenyl]-3-yl)piperidine-2,6-dione], the Dmax [1] was 98.2%, the Dmax [2] was > 90% and the DC50 [3] was 1.99 nM. The DC50 [4] was ≤ 100 nM.
O=C1CCC(c2cccc(-c3ccc(NC(=O)N4CCCC4)cc3)c2Cl)C(=O)N1 (stereo not drawn) [Compound 248, N-(2′-chloro-3′-(2,6-dioxopiperidin-3-yl)-[1,1′-biphenyl]-4-yl)pyrrolidine-1-carboxamide] gave a Dmax [1] of 84.4%, a Dmax [2] of 60 to 90% and a DC50 [3] of 26.3 nM. For the same compound, the DC50 [4] was ≤ 100 nM.
For O=C1CCC(c2cccc(-c3ccc(Cc4cocn4)cc3)c2Cl)C(=O)N1 (stereo not drawn) [Compound 442, 3-(2-chloro-4′-(oxazol-4-ylmethyl)-[1,1′-biphenyl]-3-yl)piperidine-2,6-dione], the Dmax [1] was 95.8%, the Dmax [2] was > 90% and the DC50 [3] was 34.5 nM. For the same compound, the DC50 [4] was ≤ 100 nM.
With O=C1CCC(c2cccc(-c3ccc(-n4ccc(C(F)(F)F)cc4=O)cc3)c2Cl)C(=O)N1 (stereo not drawn) [Compound 236, 3-(2-chloro-4′-(2-oxo-4-(trifluoromethyl)pyridin-1(2H)-yl)-[1,1′-biphenyl]-3-yl)piperidine-2,6-dione] the Dmax [1] was 93.5%, the Dmax [2] was > 90% and the DC50 [3] was 31.3 nM. For the same compound, the DC50 [4] was ≤ 100 nM.
For O=C1CCC(c2cccc(-c3ccc(N4CCCCS4(=O)=O)cc3)c2Cl)C(=O)N1 (stereo not drawn) [Compound 220], the Dmax [1] was 77.2%, the Dmax [2] was 60 to 90% and the DC50 [3] was 104 nM. The DC50 [4] was 100 to 1000 nM.
In the case of COC1CCCC(=O)N1c1ccc(-c2cccc(C3CCC(=O)NC3=O)c2Cl)cc1 (stereo not drawn) [Compound 318], the Dmax [1] is reported as 97.2%, the Dmax [2] is reported as > 90% and the DC50 [3] is reported as 5.24 nM. The DC50 [4] was ≤ 100 nM.
For O=C1CCC(c2cccc(-c3ccc(C4COC(=O)N4)cc3)c2Cl)C(=O)N1 (stereo not drawn) [Compound 106], the Dmax [1] was 14%, the Dmax [2] was < 60% and the DC50 [3] was ≥ 10000 nM. The DC50 [4] was > 1000 nM.
With O=C1CCC(c2cccc(-c3ccc(C4(N5CCCCC5=O)CC4)cc3)c2Cl)C(=O)N1 (stereo not drawn) [Compound 337, 3-[2-chloro-3-[4-[1-(2-oxo-1-piperidyl)cyclopropyl]phenyl]phenyl]piperidine-2,6-dione] the Dmax [1] was 40%, the Dmax [2] was < 60% and the DC50 [3] was 5770 nM. The DC50 [4] was > 1000 nM.
Work on O=C1CCC(c2cccc(-c3ccc(N4C(=O)CC45CCC5)cc3)c2Cl)C(=O)N1 (stereo not drawn) [Compound 405, 3-(2-chloro-4′-(2-oxo-1-azaspiro[3.3]-heptan-1-yl)-[1,1′-biphenyl]-3-yl)piperidine-2,6-dione] yielded a Dmax [1] of 76.3%, a Dmax [2] of 60 to 90% and a DC50 [3] of 383 nM. It also gave a DC50 [4] of 100 to 1000 nM.
O=C1CCC(c2cccc(-c3ccc(Cc4nccc(C5CC5)n4)cc3)c2Cl)C(=O)N1 (stereo not drawn) [Compound 344, 3-(2-chloro-4′-((4-cyclopropylpyrimidin-2-yl)methyl)-[1,1′-biphenyl]-3-yl)piperidine-2,6-dione] was tested, and the Dmax [1] was 98%, the Dmax [2] was > 90% and the DC50 [3] was 6.97 nM. The DC50 [4] was ≤ 100 nM.
O=C1CCC(c2cccc(-c3ccc4c(c3)CCCO4)c2Cl)C(=O)N1 (stereo not drawn) [Compound 381, 3-[2-chloro-3-(3,4-dihydro-2H-1-benzopyran-6-yl)phenyl]piperidine-2,6-dione] was tested, and the Dmax [1] was 96.5%, the Dmax [2] was > 90% and the DC50 [3] was 35.9 nM. The DC50 [4] was ≤ 100 nM.
